Assay results from patent publication US20130310387A1, “Monocyclic Heteroaryl Cycloalkyldiamine Derivatives” (NOVARTIS AG, priority 2012, published 2013).

Legend:
[1] = target: Syk (2-635) (KSYK_HUMAN, P43405) (Homo sapiens, UniProt P43405); assay: Syk enzyme assay (chip based microfluidic mobility shift assay); format: biochemical; conditions: 4 μM ATP, 4 nM Syk, 60 minutes at 30° C.
Experimental: A number of compounds of the present invention were assayed in a chip based microfluidic mobilitiy shift assay. All assays were performed in 384 well microtiter plates. Each assay plate contained 8-point serial dilutions for 40 test compounds, as well as four 8-point serial dilutions of staurosporine as reference compound, plus 16 high- and 16 low controls. Liquid handling and incubation steps were done on a Thermo CatX workstation equipped with a Innovadyne Nanodrop Express. Between pipetting steps, tips were cleaned in wash cycles using wash buffer. The assay plates were prepared by addition of 50 nl per well of compound solution in 90% DMSO. […] Kinase reactions were incubated at 30° C. for 60 minutes and subsequently terminated by addition of 16 μl per well of stop solution (100 mM HEPES pH 7.5, 5% DMSO, 0.1% Caliper coating reagent, 10 mM EDTA, and 0.015% Brij35). Plates with terminated kinase reactions were transferred to the Caliper LC3000 workstations for reading. Phosphorylated and unphosphorylated peptides were separated using the Caliper microfluidic mobility shift technology. Briefly, samples from terminated kinase reactions were applied to the chip. Analytes are transported through the chip by constant buffer flow and the migration of the substrate peptide is monitored by the fluorescence signal of its label. Phosphorylated peptide (product) and unphosphorylated peptide (substrate) are separated in an electric field by their charge/mass ratio. Kinase activities were calculated from the amounts of formed phospho-peptide. […] values were determined from percent inhibition values at different compound concentrations by non-linear regression analysis.
Test compounds were dissolved in DMSO (10 mM) and transferred into 1.4 mL flat bottom or V-shaped Matrix tubes carrying a unique 2D matrix. The stock solutions were stored at […] if not used immediately. For the test procedure the vials were defrosted and identified by a scanner whereby a working sheet was generated that guided the subsequent working steps.
Compound dilutions were made in 96 well plates. This format enabled the assay of maximally 40 individual test compounds at 8 concentrations (single points) including 4 reference compounds. The dilution protocol included the production of “pre-dilution plates”, “master plates” and “assay plates”.
96 polypropylene well plates were used as pre-dilution plates. A total of 4 pre-dilution plates were prepared including 10 test compounds each on the plate positions A1-A10, one standard compound at A11 and one DMSO control at A12. All dilution steps were done on a HamiltonSTAR robot.
30 μL of individual compound dilutions including standard compound and controls of the 4 “pre-dilution plates” were transferred into a 384 “master plate” including the following concentrations 1′810, 362, 72.5, […], 14.5, 2.9, 0.58 and 0.12 μM, respectively in 90% of DMSO.
Identical “assay plates” were then prepared by pipetting […] each of compound dilutions of the “master plates” into 384-well “assay plates” by means of a HummingBird 384-channel dispenser. These plates were used directly for the assay which was performed in a total volume of 9.05 μL. This led to a final compound concentration of 10, 2.0, 0.4, 0.08, 0.016, 0.0032, 0.00064 and 0.000128 μM and a final DMSO concentration of 0.5% in the assay.

[2] = target: T1, hERG channel (Homo sapiens, UniProt Q12809); assay: Inhibition of the hERG channel (manual patch clamp assay); format: cell-based; conditions: HEK293 cells stably transfected with hERG cDNA, whole-cell patch clamp, tail current
T1 construct: host or cells: HEK293
Description: The hERG patch clamp assay was done according to standard procedures used in Genetic Toxicology and Safety Pharmacology, based on recommendations and descriptions of methods in the literature, and according to current guidelines (ICH S7B, The non clinical evaluation of the potential for delayed ventricular repolarization (QT interval prolongation) by human pharmaceuticals, 2005). The purpose of the study is to assess the effect of the test item ABC123 on tail current recorded from HEK293 cells stably transfected with hERG cDNA. The HEK293 cells, which have been stably transfected with hERG cDNA, are a model considered to be suitable for this purpose (Zhou et al., 1998). Repolarisation of cardiac ventricular myocytes is mainly due to outward potassium currents. The most important current in humans is the delayed rectifier potassium current, IK, which has both rapidly and slowly activating components (IKr and IKs) (Sanguinetti and Jurkiewicz, 1990). The human ether-a-gogo-related-gene (hERG) encodes the major protein underlying IKr. Thus, inhibition of hERG potassium channels may lead to delayed cardiac repolarisation (Sanguinetti et al., 1995). Prolongation of cardiac repolarisation is a side effect that can be associated with some drug therapies. This proarrhythmic alteration is characterised by a prolongation of the QT interval in the surface electrocardiogram and is of particular concern because it may lead to the development of polymorphic ventricular arrhythmias like torsade de pointes (for review see: Vandenberg, Walker and Campbell, 2001). […] HERG HEK (HEK293 cells stably transfected with hERG cDNA) obtained from the University of Wisconsin were used. For the experiments the cells were plated onto sterile Thermanox plastic coverslips (Nalge Nunc International) in 6-well plates. The dishes were stored in a humidified, gassed incubator. The coverslips with cells were transferred to the recording chamber and continuously superfused (at approximately 1-2 ml/min) with vehicle. The temperature of the vehicle in the bath chamber was regulated by temperature controllers to 35° C.±2.0° C. hERG currents were measured in the whole-cell patch-clamp configuration. Once a stable patch clamp configuration was achieved, recording commenced in voltage-clamp mode, with the cell initially clamped at -75 mV. hERG current was observed and recorded if a stable hERG tail current response could be induced. […] The hERG HEK293 cells were treated approximately 9 min with the test item. The following voltage protocol was applied to induce hERG currents: The step from -75 mV to +10 mV activates an outward current (i.e. current flows out of the cell) and the step from +10 mV to -40 mV produces the tail current (the tail current represents the time taken for the current to turn off). […] The leak current was recorded and subtracted by a P/3n pulse between the voltage pulses (0.1 Hz).

[3] = tested on: OCI-Ly10 cells; assay: B-cell lymphoma cell proliferation (WST-1 assay), OCI-Ly10; format: cell-based; conditions: Homo sapiens, 72 h; OCI-Ly10, 3 days of incubation
Experimental: Cell proliferation was determined using the WST-1 assay (Roche, Mannheim, Germany), which measures the metabolic activity of the cells. Briefly, 5×10^5 TMD-8, OCI-Ly3, and OCI-Ly10 cells/well and 10×10^5 HBL-1 cells/well were seeded in triplicate in 96-well plates and were incubated with various concentrations of compounds to be tested for 3 days. The cell proliferation reagent WST-1 (10 μl/well) was added to the cells for 1-2 hours depending on the cell type which were cultured in 200 μl of medium. The absorbance was then measured with an enzyme-linked immunosorbent assay plate reader at a wavelength of 450 nm.

T1 sequence (Q12809 whole entry): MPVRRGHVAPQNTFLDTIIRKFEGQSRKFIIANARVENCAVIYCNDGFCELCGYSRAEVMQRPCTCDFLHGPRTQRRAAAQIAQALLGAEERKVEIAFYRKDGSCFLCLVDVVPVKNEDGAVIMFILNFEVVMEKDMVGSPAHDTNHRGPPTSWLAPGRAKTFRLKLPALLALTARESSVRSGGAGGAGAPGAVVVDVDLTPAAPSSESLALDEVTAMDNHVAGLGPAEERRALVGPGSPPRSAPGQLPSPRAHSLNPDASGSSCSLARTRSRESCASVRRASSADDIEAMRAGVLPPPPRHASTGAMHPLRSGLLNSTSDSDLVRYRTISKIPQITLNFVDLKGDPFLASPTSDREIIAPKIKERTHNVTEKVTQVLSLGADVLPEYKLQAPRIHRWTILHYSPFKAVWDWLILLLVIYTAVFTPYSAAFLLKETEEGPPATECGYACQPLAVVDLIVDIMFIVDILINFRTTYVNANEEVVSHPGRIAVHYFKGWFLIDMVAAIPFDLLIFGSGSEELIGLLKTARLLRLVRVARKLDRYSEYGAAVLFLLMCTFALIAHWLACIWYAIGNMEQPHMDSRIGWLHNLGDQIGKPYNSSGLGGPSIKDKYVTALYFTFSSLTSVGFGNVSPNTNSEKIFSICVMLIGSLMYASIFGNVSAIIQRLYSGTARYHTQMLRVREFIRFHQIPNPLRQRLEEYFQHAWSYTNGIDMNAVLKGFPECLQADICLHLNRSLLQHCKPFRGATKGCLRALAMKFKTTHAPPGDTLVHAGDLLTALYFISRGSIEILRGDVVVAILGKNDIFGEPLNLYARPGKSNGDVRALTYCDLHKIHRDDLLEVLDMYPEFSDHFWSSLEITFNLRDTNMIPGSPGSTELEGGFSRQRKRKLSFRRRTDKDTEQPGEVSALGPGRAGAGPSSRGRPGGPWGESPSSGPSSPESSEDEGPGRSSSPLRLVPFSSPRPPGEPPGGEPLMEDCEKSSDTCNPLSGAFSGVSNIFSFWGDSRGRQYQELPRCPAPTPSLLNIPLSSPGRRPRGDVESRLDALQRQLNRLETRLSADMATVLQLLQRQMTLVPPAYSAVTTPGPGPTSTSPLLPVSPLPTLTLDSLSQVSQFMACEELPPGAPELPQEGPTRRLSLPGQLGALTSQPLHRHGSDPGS

NC(=O)c1nnc(N[C@@H]2CCCC[C@@H]2N)nc1Nc1cccc2cc[nH]c12 [Example 1.1, 3-((1R,2S)-2-Amino-cyclohexylamino)-5-(1H-indol-7-ylamino)-[1,2,4]triazine-6-carboxylic acid amide]
IC50 [1]: 23 nM
inhibition at 9 min, 10 µM ([2]; at 10 uM): -5 ± 4%
inhibition at 9 min, 30 µM ([2]; at 30 uM): 12 ± 6%
GI50 [3]: 25 nM
